How the values were obtained:
Assay in all cases: cell proliferation assay
Type in all cases: cell-based
[1] = tested on: BCR-ABL1; settings: BCR-ABL1-positive cells; proliferation read-out; stated gain
[2] = tested on: BCR-ABL1; settings: BCR-ABL1-positive cells; proliferation read-out; stated gain; remark: listed apart in the source
[3] = tested on: BCR-ABL1; settings: BCR-ABL1-positive cells; proliferation read-out; stated gain; remark: listed apart in the source
[4] = tested on: BCR-ABL1; settings: BCR-ABL1-positive cells; proliferation read-out

Cc1ccc(C(=O)NNC(=O)c2c(C)cccc2Cl)cc1C#Cc1cnc2ccccc2c1 [K0706] was tested, and the IC50 [1] was 154 nM, the IC50 [2] was 165 nM and the IC50 [3] was 1967 nM. It also gave an IC50 [4] of 7 nM.

— PMC6803074 (Experimental hematology, 2019)
